Tested on: hiPSC chondrogenic pellets
Test: scRNA-seq of hiPSC chondrogenic pellets with WNT inhibition
Type: cell-based, human
Description: On the day of collection for bulk RNA-seq experiments, 3-4 pellets per experimental group were pooled together and washed once with phosphate-buffered saline (PBS), snap-frozen in 300 μl of Buffer RL (Norgen Biotek), and stored at −80° C. until processing for RNA extraction. At harvesting time points for scRNA-seq experiments, 6-8 pellets per experimental group were pooled and digested with 0.04% Type II collagenase solution in DMEM/F12 for 1 h. Cells were washed once with PBS, resuspended in standard freezing medium, and stored in liquid nitrogen until needed.
WNT-C59 and ML329 treatment for WNT and MITF inhibition. For WNT-C59 treatment for WNT inhibition during chondrogenesis, pellets were treated with either 10 ng ml^−1 TGF-β3 (control group) or a combination of 10 ng ml^−1 TGF-β3 and 1 μM WNT-C59 in a chondrogenic medium from d0 to d42 as appropriate. For WNT-C59 and ML329 treatment (ML, Axon Medchem, HY-101464) for WNT and MITF inhibition during chondrogenesis, pellets were treated with either 10 ng ml^−1 TGF-β3 (control group), a combination of 10 ng ml^−1 TGF-β3 and 1 μM ML, a combination of 10 ng ml^−1 TGF-β3 and 1 μM WNT-C59, or a combination of 10 ng ml^−1 TGF-β3, 1 μM ML and 1 μM WNT-C59 in chondrogenic medium from d0 to d42 as appropriate.
10× chromium platform scRNA-seq. Cells were thawed at 37° C. and resuspended in PBS with 0.04% bovine serum albumin at a concentration of 2000 cells per μl. Cell suspensions were submitted to the GTAC sequencing core at Washington University in St. Louis for library preparation and sequencing. In brief, 10,000 cells per sample were loaded on a Chromium Controller (10× Genomics) for single capture. Libraries were prepared using Single Cell 3′ Library & Gel Bead Kit v2 (#120237 10× Genomics) following the manufacture's instruction. A single cell emulsion (Gel Bead-In-EMulsions, GEMs) is created by making barcoded cDNA unique to each individual emulsion. A recovery agent was added to break GEM and cDNA was then amplified. A library is produced via end repair, dA-tailing, adapter ligation, post-ligation cleanup with SPRIselect, and sample index PCR. The quality and concentration of the amplified cDNA were evaluated by Bioanalyzer (Agilent 2100) on a High Sensitivity DNA chip (Agilent, #5065-4401). The only cDNA with an average library size of 260-620 bp were used for sequencing. Sequencing was performed by IIlumina HiSeq2500 with the following read length: 26 bp for Read1, 8 bp for i7 Index, and 98 bp for Read2. We generally acquired ˜180 million reads per library (sample). A species mixing experiment (mouse adipose stem cells and human iPSCs, 1:1 mixture) was also performed prior to running on the actual sample to ensure good quality of single-cell capture (i.e., cell doublet rate<5%).
Preprocessing of scRNA-seq data. Paired-end sequencing reads were processed by Cell Ranger (10× Genomics software, version 2.0.0). Reads were aligned to the GRCh38 (version 90) for genome annotation, demultiplexing, barcode filtering, and gene quantification. Cell Ranger also removes any barcode that has less than 10% of the 99th percentile of total unique molecular identifiers (UMI) counts per barcode as these barcodes are considered to be associated with empty droplets. After this quality control, gene barcode matrices for each sample were generated by counting the number of UMIs for a given gene (as a row) in the individual cell (as a column). For each sample, ˜1300-2500 cells were captured.
Unsupervised clustering analysis and annotation. To assess the difference in the composition of cell populations, global unsupervised clustering analysis was performed for our scRNA-seq datasets. First, gene barcode matrices were input into the Seurat R package (version 2.4). Then, the low-quality cells with less than 200 or more than 7000 detected genes or if their mitochondrial gene content was more than 5% were removed. […]

[1] = trajectory vs TGF-β3-treated pellets

Cc1cc(-c2ccc(CC(=O)Nc3ccc(-c4cccnc4)cc3)cc2)ccn1 [WNT-C59]
neural cells and melanocytes in pellets (WNT-C59-treated pellets d7-d42): significantly decreased
percentage of BMP4-expressing cells (d14, all clusters except ISG15/IFI6/MX1+ chondrocytes): decreased percentage
percentage of GDF5 and BMPR1B expressing cells (d14, all clusters vs TGF-β3-treated): remarkably increased percentage
percentage of cells expressing BMPR2 (d14, several chondrocyte subpopulations): decreased
expression of most WNTs (d14 and d28 pellets, particularly proliferative cells): decreased expression
FRZB expression in chondrocyte population (d14 pellets): upregulated
ID2 (neurogenic marker) in proliferative cells (d14 pellets): decreased
PRG4 in mesenchymal cells (d14 pellets): increased
mesenchyme and chondrocytes content (d14 pellets vs TGF-β3 only): more
IFI6 and ISG15 (mature-hypertrophic chondrocyte markers) (d28 pellets): downregulated
expression of ACAN and COMP (d28 pellets vs standard-treated): increased
chondrogenic markers [1]: enriched expression
neurogenic markers [1]: little, if any
ACAN expression in pseudotime (vs TGF-β3 alone): earlier induction
COL2A1 and SOX9 expression in pseudotime (vs TGF-β3 alone): higher levels
SOX2 expression in pseudotime (vs TGF-β3 alone): earlier decrease

Source: patent US20230295571A1, “COMPOSITIONS AND METHODS FOR STEM CELL CHONDROGENESIS” (Washington University, priority 2020, published 2023)
